Test results from article PMC10726354, “Design, Synthesis, and Biological Evaluation of Small-Molecule-Based Radioligands with Improved Pharmacokinetic Properties for Imaging of Programmed Death Ligand 1” (Journal of Medicinal Chemistry, 2023).
“And” between values parts separate entries of the source, which are not always exact repeats. Equal values may be shown once. Read-outs that look alike come from different tables or passages of the source.

What was measured:
PD-L1 = target: T1, PD-L1 (Homo sapiens, UniProt Q9NZQ7); test: Saturation binding assay on live PC3 PD-L1 overexpressing cells
T1 construct: expressed in transfected cells; host or cells: PC3 cells (human prostate carcinoma), stably transduced
Procedure: For assessing the binding affinity of compounds [^64Cu]Cu-1–6, PC3 cells transduced with PD-L1 were used. Dissociation constants in equilibrium (KD) and maximum number of binding sites (Bmax) were determined in a saturation binding assay. The assays were performed with the addition of 2.5% bovine serum albumin (BSA) in the medium to prevent unspecific binding to plastic wells, as reported previously for our first radioligands.[1]
For saturation binding, cells were trypsinized (0.05% Trypsin–EDTA, Gibco, USA), counted, and diluted to ∼160,000 cells/mL. 0.25 mL of the cell solution was then added to each well of a 48-well plate (Falcon Multiwell #353078) and grown for at least 2 days.
To determine the affinity (KD) and the number of binding sites (Bmax) of the herein described PD-L1 small-molecule ligands, saturation binding was performed in at least three independent experiments, as described before.[45] Cells were brought to room temperature followed by cooling on ice (each 15 min). The medium was removed and replaced with 200 μL assay buffer [PBS + 2.5% (w/v) BSA] for total binding (TB) conditions or assay buffer containing 300 μM BMS-1166 (in DMSO, resulting in 0.03% v/v) for the assessment NSB. After 15 min preincubation, 200 μL of each of the eight serial 1:1 dilutions (500 to 3.91 nM) of the respective radioligand was added (in triplicate). Cells were then incubated for 90 min at 4 °C, washed (3 × 1 min), and lysed in 500 μL of 0.1 M NaOH + 1% SDS. Radioactivity of the lysate was measured and decay corrected to a reference time (end of radiolabeling). An additional plate was subjected to the same conditions (preincubation, incubation, and washing) using PBS without BSA for each experiment, and the protein content of these lysates was determined by BCA assay. From CPM measurements, final values (pmol/mg protein) were calculated using the mean protein content and molar activity.
Processed data were then subjected to nonlinear iterative curve fitting (GraphPad Prism 9) to yield Bmax (in pmol/mg protein) and KD (in nM).

PC3 mock tumor = test: Small-animal PET, uptake in mock tumor; conditions: for SUVmax PC3 mock tumor: tracer only; for SUVmax PC3 mock tumor +block: blocker i.v. before tracer: Cu-1 100 nmol 1, Cu-2 100 nmol 2, Cu-3 1000 nmol 4, Cu-4 500 nmol 4, Cu-6 250 nmol 1 (~5 min prior), Cu-5 100 nmol 5 (~30 min prior); for blocking effect on SUVmax in the mock tumor: 24–25 h p.i., blocker: Cu-1, Cu-2 100 nmol unlabeled compound, Cu-3 1000 nmol 4
Procedure: Changes are reported as % change of the SUVmax of the PD-L1 expressing over the respective value of the mock tumor. Similarly, the effect of blocking is reported as % change of the SUVmax of the animal injected with cold compound over that of the animal that received tracer only.
Animal experiments were performed in accordance with the guidelines of the German Regulations for Animal Welfare, approved by the Saxonian Ethical Committee for Animal Experiments (reference number DD24.1-5131/449/49). Male athymic NMRI-nude mice (Rj: NMRI-Foxn1^nu/nu, Janvier Laboratories, Le Genest-Saint-Isle, France) between 8 and 22 weeks of age were used. Under general anesthesia, [∼10% desflurane (Baxter, Deerfield, IL, USA) in 30 vol % oxygen + air] and warming, the animals were subcutaneously injected with 3–5 × 10^6 PC3-PD-L1 and PC3-mock cells [in 50 μL PBS +50 μL Matrigel (Corning, Glendale, USA)] into the right and left thigh, respectively. Tumor growth was monitored three times a week by caliper measurements, and mice with tumor sizes above 7 mm were included in the experiments.
For PET studies, general anesthesia was induced as described above. PET and X-ray computed tomography (CT) were performed in a dedicated small animal nanoScan PET/CT scanner, with four animals imaged simultaneously (Mediso, Budapest, Hungary). CT images were employed for attenuation correction and anatomical referencing. Animals received three individual scans corresponding to 0–2 h (dynamic) and 4.5 and 24 h (static) postinjection.
PD-L1 radiotracer candidates (in 300 μL sterile 0.9% NaCl/HEPES buffer, pH 6–7, between 7 and 12 MBq, molar activities > 12 GBq/μmol) were delivered over 30 s i.v. (lateral tail vein) and PET acquisition started simultaneously. For blocking condition, a defined quantity of compound (the same unlabeled compound, one from the same series or BMS-1166) was diluted in sterile saline and injected i.v. approximately 5 min prior to the radiotracer. Animals not subjected to blocking were injected with vehicle at the same time.
Three-dimensional list mode data were binned using the 400–600 keV energy window and sorted into 36 time frames (15 × 10 s, 5 × 30 s, 5 × 60 s, 4 × 300 s, 3 × 600 s, 4 × 900 s). Time frames were reconstructed using the Tera-TomoTM 3D algorithm applying a voxel size of 0.4 mm and corrections for decay, scatter, and attenuation.
Three-dimensional volumes of interest were delineated applying fixed thresholding at 35% of the measured maximum intensity. Standardized uptake values (SUV = [MBq detected activity/mL tissue]/[MBq injected activity/g body weight], […]) were determined in selected volumes of interest, among these PD-L1 and mock tumors.
14. In vivo: PET- SUV data
Standardized uptake values (SUVmax)
Supplementary table 1: In vivo standardized uptake values (SUVmax ± standard deviation) of 64Cu-labeled third series compounds [64Cu]Cu-1-6 at 1.5 (1–2), 4.5 (4–5) and 24.5 (24–25) hours
post injection (p.i.). Compounds used for blocking are described for each tracer and were intravenously injected in sterile saline at stated time before the radiotracer. Animals designated for
tracer-only received matched type and volume of vehicle at the same time.

[1] = Kinetic stability in PBS buffer (pH 7.4), radio-HPLC; format: physicochemical; conditions: room temperature; for intact radioligand in PBS (pH 7.4): radio-HPLC at 1, 24 and 48 h
Procedure: The kinetic stability of all ^64Cu-labeled ligands was investigated in PBS buffer solution (pH 7.4) by incubation at room temperature and monitoring with radio-HPLC up to 48 h. […] During the time course, no changes in peak number/shape and retention time were observed, proving the stability of the compounds. […] At the 48 h time point, however, a shoulder appears with a slightly higher retention time (∼7.0 min), indicating minor decomposition (>94% intact radiotracer).
The corresponding radiotracer was labeled with approximately 500 MBq of ^64Cu in 50 μL of HEPES solution (adjusted to pH 4.5), as described above. After successful labeling, 450 μL of PBS solution (pH 7.4) was added, and the incubation was performed (room temperature) at 300 rpm. At each time point (1, 24, and 48 h), an aliquot was withdrawn and injected into the radio-HPLC (PerkinElmer, Massachusetts, United States system C or D, Supporting Information). Evaluation and graphical plotting were performed with OriginPro 9.0.

[2] = saturation binding, live PC3 PD-L1 overexpressing cells, 2.5% BSA, 90 min at 4 °C, mean ± SD, at least three experiments, read-out: KD
[3] = saturation binding, live PC3 PD-L1 overexpressing cells, 2.5% BSA, mean ± SD
[4] = supplementary CSV, read-out: KD [nM], saturation binding assay

T1 sequence (Q9NZQ7 19-290): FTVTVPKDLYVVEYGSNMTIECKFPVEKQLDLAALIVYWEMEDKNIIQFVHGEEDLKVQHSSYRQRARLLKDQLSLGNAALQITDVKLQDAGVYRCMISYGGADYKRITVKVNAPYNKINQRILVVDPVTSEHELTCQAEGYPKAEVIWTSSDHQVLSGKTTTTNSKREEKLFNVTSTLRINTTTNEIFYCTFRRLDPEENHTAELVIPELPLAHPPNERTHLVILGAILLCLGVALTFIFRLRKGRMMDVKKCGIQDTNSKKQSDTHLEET

SMILES	Kd (PD-L1; [2])	Bmax (maximum number of binding sites) (PD-L1; [3])	SUVmax PC3 mock tumor (PC3 mock tumor; 1.5 (1–2) hours p.i.)	SUVmax PC3 mock tumor +block (PC3 mock tumor; 1.5 (1–2) hours p.i.)	SUVmax PC3 mock tumor (PC3 mock tumor; 4.5 (4–5) hours p.i.)	SUVmax PC3 mock tumor +block (PC3 mock tumor; 4.5 (4–5) hours p.i.)	blocking effect on SUVmax in the mock tumor (PC3 mock tumor) [%]	SUVmax PC3 mock tumor (PC3 mock tumor; 24.5 (24–25) hours p.i.)	SUVmax PC3 mock tumor +block (PC3 mock tumor; 24.5 (24–25) hours p.i.)	intact radioligand in PBS (pH 7.4) [1] [%]	blocking effect in the mock tumor (PC3 mock tumor; 1–2 and 4–5 h p.i., 1000 nmol unlabeled compound 4)	Kd (PD-L1; [4]) [nM]	intact radiotracer in PBS (pH 7.4) at 48 h ([1]; 48 h) [%]
Cc1c(COc2cc(OCc3cncc(C#N)c3)c(CN[C@@H](CS(=O)(=O)O)C(=O)NCCS(=O)(=O)O)cc2Cl)cccc1-c1cccc(OCc2cn(CCCN3CCN(C(=O)[C@H](CS(=O)(=O)O)NC(=O)CC[C@H](C(=O)O)N4CCN(CC(=O)O)CCN(CC(=O)O)CC4)CC3)nn2)c1C.[64Cu+2] [[^64Cu]Cu-1]	80.5 ± 5.02 nM	7.05 pmol·mg^–1 and 7.05 ± 0.99 pmol·mg^–1	1.0	1.4	0.8	1.0	−41 to −54	1.2	0.7				
Cc1c(COc2cc(OCc3cncc(S(C)(=O)=O)c3)c(CN[C@@H](CS(=O)(=O)O)C(=O)NCCS(=O)(=O)O)cc2Cl)cccc1-c1cccc(OCc2cn(CCCN3CCN(C(=O)[C@H](CS(=O)(=O)O)NC(=O)CC[C@H](C(=O)O)N4CCN(CC(=O)O)CCN(CC(=O)O)CC4)CC3)nn2)c1C.[64Cu+2] [[^64Cu]Cu-3]	93.7 ± 10.8 nM	8.51 ± 0.48 pmol·mg^–1	0.85 ± 0.05	0.80 ± 0.1	0.55 ± 0.15	0.55 ± 0.05	36	0.7 ± 0.2	0.45 ± 0.05	> 99	negligible		
Cc1c(COc2cc(OCc3cncc(S(C)(=O)=O)c3)c(CN[C@@H](CS(=O)(=O)O)C(=O)NCCP(=O)(O)O)cc2Cl)cccc1-c1cccc(OCc2cn(CCCN3CCN(C(=O)CC[C@H](C(=O)O)N4CCN(CC(=O)O)CCN(CC(=O)O)CC4)CC3)nn2)c1C.[64Cu+2] [[^64Cu]Cu-4]	82.4 ± 7.42 nM	10.7 pmol·mg^–1 and 10.7 ± 1.34 pmol·mg^–1	0.8 ± 0.10	0.65 ± 0.05	0.45 ± 0.05	0.6 ± 0.2		1.25 ± 0.15	0.8 ± 0.3	> 99		112	
Cc1c(COc2cc(OCc3cncc(S(C)(=O)=O)c3)c(CN[C@@H](CS(=O)(=O)O)C(=O)NCCP(=O)(O)O)cc2Cl)cccc1-c1cccc(OCc2cn(CCCN3CCN(C(=O)[C@H](CS(=O)(=O)O)NC(=O)CC[C@H](C(=O)O)N4CCN(CC(=O)O)CCN(CC(=O)O)CC4)CC3)nn2)c1C.[64Cu+2] [[^64Cu]Cu-5]	112 ± 11 nM	19.1 pmol·mg^–1 and 19.1 ± 0.67 pmol·mg^–1	0.80 ± 0.10	0.75 ± 0.05	1.1 ± 0.1	0.85 ± 0.05		1.05 ± 0.65	1.6 ± 0.00	> 99		82.4	
Cc1c(COc2cc(OCc3cncc(S(C)(=O)=O)c3)c(CN[C@@H](CS(=O)(=O)O)C(=O)NCCP(=O)(O)O)cc2Cl)cccc1-c1cccc(OCc2cn(CCCN3CCN(C(=O)[C@H](CP(=O)(O)O)NC(=O)CC[C@H](C(=O)O)N4CCN(CC(=O)O)CCN(CC(=O)O)CC4)CC3)nn2)c1C.[64Cu+2] [[^64Cu]Cu-6]	532 nM and 533 nM	10.3 ± 0.74 pmol·mg^–1	0.83 ± 0.08	1.04 ± 0.15	1.35 ± 0.15	1.7 ± 0.1		2.2 ± 0.2	3.05 ± 0.35	> 99			> 94
